Where a name gives a salt, the structure may show the parent alone.
What was measured:
Hartley guinea pigs [1] = test: Preventive effect on fingolimod-induced bradyarrhythmia in isoflurane-anesthetized guinea pig model; assay type: in vivo; conditions: fingolimod hydrochloride 0.1 mg/kg i.v. over 10 min, compound (I) non-administration group
Description: A solvent or compound (I) (free form) was administered by oral gavage at a dose of 1, 3, or 10 mg/kg (volume: 5 mL/kg) to Hartley guinea pigs (7 to 10 weeks old, male, available from Japan SLC, Inc.). After completion of the administration, each animal was subjected to anesthetic induction by inhalation of isoflurane (available from Pfizer Japan Inc.), and the animal was held on an operating table having a heater function. The trachea was incised, and a tracheal cannula (KN-375, available from Natsume Seisakusho Co., Ltd.) was inserted. The tracheal cannula was connected to a ventilator (SN-480-7, available from Shinano Seisakusho Co., Ltd.), and artificial respiration was controlled by supplying 100% oxygen at a volume of 10 mL and a ventilation rate of 60 times/minute. The solvent used was 0.5 w/v % methyl cellulose 400 solution (available from FUJIFILM Wako Pure Chemical Corporation). Isoflurane (available from Pfizer Japan Inc.) anesthesia (about 1 to 4%, carrier gas: 100% oxygen) was used for maintenance of anesthesia. A catheter (BD intramedic polyethylene tubing PE50, available from Becton, Dickinson and Company) charged with 50 units/mL heparin (available from AY PHARMACEUTICALS CO., LTD.) was inserted into each of the carotid artery and the jugular vein and placed in the blood vessel. Systemic blood pressure was measured with a high-sensitivity DC amplifier (AD-611J, available from NIHON KOHDEN CORPORATION) via the catheter placed in the carotid artery. Electrodes were attached to the body surface, and a body surface electrocardiogram was measured with a high-sensitivity amplifier (AB-611J, available from NIHON KOHDEN CORPORATION). Blood pressure and electrocardiogram data were acquired and analyzed with PowerLab/Labchart system (available from ADInstruments). Analysis items are systolic blood pressure, diastolic blood pressure, average blood pressure, heart rate, P-wave width, PR interval, QRS width, QT interval, and corrected QT interval. Corrected QT interval was calculated using the fridericia formula (QTc=QT interval/RR interval^1/3). After stabilization of each parameter, fingolimod hydrochloride (synthesized with reference to WO 2000/027798) was continuously administered intravenously at 0.1 mg/kg for 10 minutes via the catheter placed in the jugular vein, followed by observation of the presence or absence of the onset of bradyarrhythmia for 60 minutes. The solvent used was saline (available from Otsuka Pharmaceutical Factory, Inc.). Data were recorded and blood was collected 5, 10, 15, 20, 30, and 60 minutes after initiation of administration of fingolimod hydrochloride. The observation was terminated 60 minutes after initiation of the administration, and the animal was euthanized by exsanguination or intravenous administration of a large amount of pentobarbital or saturated potassium chloride solution under isoflurane anesthesia. Data were analyzed for atrial beating rate over time, ventricular beating rate over time, electrocardiographic parameters, the presence or absence of the onset of atrioventricular block, and plasma concentrations of compound (I), fingolimod, and fingolimod phosphorylated form. The plasma was collected by centrifuging the blood and cryopreserved at about −20° C. After thawing of the plasma, plasma drug concentrations were measured using LC/MS/MS after deproteinization with acetonitrile.
Atrioventricular block was defined as follows.
Second-degree atrioventricular block: atrial activation wave (P wave) is normal, which is followed by or not followed by ventricular activation wave (QRS wave).
Third-degree atrioventricular block: there is no electrical conduction between the atrium and the ventricle, and atrial and ventricular activation waves are generated independently, resulting in atrioventricular dissociation.
In FIG. 1, the measurements are shown as mean±standard error. […]

Hartley guinea pigs [2] = test: Termination effect on fingolimod-induced bradyarrhythmia in isoflurane-anesthetized guinea pig model; assay type: in vivo; conditions: 30 minutes after initiation of administration of 0.1 mg/kg i.v.; FIG. 5
Excerpt: Hartley guinea pigs (7 to 10 weeks old, male, available from Japan SLC, Inc.) were subjected to anesthetic induction by inhalation of isoflurane (available from Pfizer Japan Inc.), and each animal was held on an operating table having a heater function. The trachea was incised, and a tracheal cannula (KN-375, available from Natsume Seisakusho Co., Ltd.) was inserted. The tracheal cannula was connected to a ventilator (SN-480-7, available from Shinano Seisakusho Co., Ltd.), and artificial respiration was controlled by supplying 100% oxygen at a volume of 10 mL and a ventilation rate of 60 times/minute. Isoflurane (available from Pfizer Japan Inc.) anesthesia (about 1 to 4%, carrier gas: 100% oxygen) was used for maintenance of anesthesia. A catheter (BD intramedic polyethylene tubing PE50, available from Becton, Dickinson and Company) charged with 50 units/mL heparin (available from AY PHARMACEUTICALS CO., LTD.) was inserted into each of the carotid artery and the jugular vein and placed in the blood vessel. Systemic blood pressure was measured with a high-sensitivity DC amplifier (AD-611J, available from NIHON KOHDEN CORPORATION) via the catheter placed in the carotid artery. Electrodes were attached to the body surface, and a body surface electrocardiogram was measured with a high-sensitivity amplifier (AB-611J, available from NIHON KOHDEN CORPORATION). Blood pressure and electrocardiogram data were acquired and analyzed with PowerLab/Labchart system (available from ADInstruments). After stabilization of each parameter, fingolimod hydrochloride (available from Nissan Chemical Corporation) was continuously administered intravenously at 0.1 mg/kg for 10 minutes via the catheter placed in the jugular vein, followed by observation of the presence or absence of atrioventricular block. After confirmation that atrioventricular block continued for 10 minutes from the onset thereof, a solvent or compound (I) dihydrochloride was continuously administered intravenously at 0.1 mg/kg for 30 minutes, and the effect of terminating atrioventricular block was observed during the intravenous administration. The solvent used was saline (available from Otsuka Pharmaceutical Factory, Inc.). Data were recorded and blood was collected 10, 20, and 30 minutes after initiation of administration of compound (I) dihydrochloride and at the time of termination of atrioventricular block. The observation was terminated 30 minutes after initiation of the administration, and the animal was euthanized by exsanguination or intravenous administration of a large amount of saturated potassium chloride solution under isoflurane anesthesia. Data were analyzed for the presence or absence of the termination, the time required for the termination, and the plasma concentration of compound (I) at the time of termination. The plasma was collected by centrifuging the blood and cryopreserved at about −20° C. After thawing of the plasma, plasma drug concentrations were measured using LC/MS/MS after deproteinization with acetonitrile.
In Table 1, the measurements are shown as mean±standard error.

Hartley guinea pigs [3] = test: Preventive effect on siponimod-induced bradyarrhythmia in isoflurane-anesthetized guinea pig model; assay type: in vivo; conditions: siponimod 0.01 mg/kg i.v. over 10 min, compound (I) non-administration group
Description: A solvent or compound (I) (free form) was administered by oral gavage at a dose of 0.3. 1, or 3 mg/kg (volume: 5 mL/kg) to Hartley guinea pigs (7 to 10 weeks old, male, available from Japan SLC, Inc.). After completion of the administration, each animal was subjected to anesthetic induction by inhalation of isoflurane (available from Pfizer Japan Inc.), and the animal was held on an operating table having a heater function. The trachea was incised, and a tracheal cannula (KN-375, available from Natsume Seisakusho Co., Ltd.) was inserted. The tracheal cannula was connected to a ventilator (SN-480-7, available from Shinano Seisakusho Co., Ltd.), and artificial respiration was controlled by supplying 100% oxygen at a volume of 10 mL and a ventilation rate of 60 times/minute. The solvent used was 0.5 w/v % methyl cellulose 400 solution (available from FUJIFILM Wako Pure Chemical Corporation). Isoflurane (available from Pfizer Japan Inc.) anesthesia (about 1 to 4%, carrier gas: 100% oxygen) was used for maintenance of anesthesia. A catheter (BD intramedic polyethylene tubing PE50, available from Becton, Dickinson and Company) charged with 50 units/mL heparin (available from AY PHARMACEUTICALS CO., LTD.) was inserted into each of the carotid artery and the jugular vein and placed in the blood vessel. Systemic blood pressure was measured with a high-sensitivity DC amplifier (AD-611J, available from NIHON KOHDEN CORPORATION) via the catheter placed in the carotid artery. Electrodes were attached to the body surface, and a body surface electrocardiogram was measured with a high-sensitivity amplifier (AB-611J, available from NIHON KOHDEN CORPORATION). Blood pressure and electrocardiogram data were acquired and analyzed with PowerLab/Labchart system (available from ADInstruments). Analysis items are systolic blood pressure, diastolic blood pressure, average blood pressure, heart rate, P-wave width, PR interval, QRS width, QT interval, and corrected QT interval. Corrected QT interval was calculated using the Fridericia formula (QTc=QT interval/RR interval^1/3). After stabilization of each parameter, siponimod (synthesized according to WO 2017/120124) was continuously administered intravenously at 0.01 mg/kg for 10 minutes via the catheter placed in the jugular vein, followed by observation of the presence or absence of the onset of bradyarrhythmia for 60 minutes. The solvent used was a solution prepared by mixing of Polyethylene Glycol 400 (available from KANTO CHEMICAL CO., INC.) and dimethyl sulfoxide (available from FUJIFILM Wako Pure Chemical Corporation) at 9: 1 (volume ratio). Data were recorded and blood was collected 5, 10, 15, 20, 30, and 60 minutes after initiation of administration of siponimod. The observation was terminated 60 minutes after initiation of the administration, and the animal was euthanized by exsanguination or intravenous administration of a large amount of saturated potassium chloride solution under isoflurane anesthesia. Data were analyzed for atrial beating rate over time, ventricular beating rate over time, electrocardiographic parameters, the presence or absence of the onset of atrioventricular block, and plasma concentrations of compound (I) and siponimod. The plasma was collected by centrifuging the blood and cryopreserved at about −20° C. After thawing of the plasma, plasma drug concentrations were measured using LC/MS/MS after deproteinization with acetonitrile.
In FIG. 3, the measurements are shown as mean±standard error. Abbreviations, etc. are as follows. • (I): compound (I) • Atrioventricular block: the presence or absence of atrioventricular block • (x denotes second- or third-degree atrioventricular block) • PR & QRS: atrioventricular conduction time and ventricular activation time • QT & QTcF: ventricular repolarization time and heart rate-corrected ventricular repolarization time • Plasma concentration: the plasma concentration of siponimod or compound (I)

[4] = tested on: human iPS cell-derived atrial myocytes; test: Siponimod-induced decrease in beating rate in human iPS cell-derived atrial myocytes (multi-electrode array); assay type: cell-based; conditions: 0.1 μM siponimod, observed 10 minutes
Description: Cryopreserved human iPS cell-derived atrial myocytes (Human iPSC-derived atrial cardiomyocytes, available from Axol Bioscience) were thawed and seeded at 1,400,000 cells/well on a fibronectin-coated 6-well plate, followed by culturing in an incubator at 37° C. and 5% CO2 for 11 days. During the culture, the entire amount of medium was changed every other day. After the elapse of 11 days, human iPS cell-derived atrial myocytes that started beating were removed from the plate and recovered with TrypLE Select Enzyme (available from ThermoFisher Scientific). The atrial myocytes were seeded at 25,000 cells/2 μL on a fibronectin-coated 6-well MEA Chip (60-6well MEA200/30iR-Ti-tcr, available from Multi Channel Systems) and cultured in an incubator at 37° C. and 5% CO2 for one hour. Thereafter, 400 μL of medium was added and cultured in an incubator at 37° C. and 5% CO2 for 13 days. During the culture, a half amount of the medium was changed every other day. After the elapse of […], the MEA Chip was set in a multi-electrode array system (MEA2100, available from Multi Channel Systems) to thereby obtain extracellular potentials under spontaneous beating. […] Data were analyzed with Labchart System (available from ADInstruments).
In FIG. 6, the measurements are shown as mean±standard error, and (I) denotes compound (I).

With `CCCCCCCCc1ccc(CCC(N)(CO)CO)cc1` [fingolimod, reference compound] the “cases with fingolimod-induced atrioventricular block” value (Hartley guinea pigs [1]) was “four out of four”.
For `Cc1cc(CO)nc2cc3c(cc12)OC(C)(C)[C@H](O)[C@H]3NCCc1ccccc1` [compound (I) dihydrochloride], the “fingolimod-induced bradycardia (heart rate, electrocardiogram)” value (Hartley guinea pigs [2]) was “completely recovered”.
In the case of `CCc1cc(/C(C)=N/OCc2ccc(C3CCCCC3)c(C(F)(F)F)c2)ccc1CN1CC(C(=O)O)C1` [siponimod, reference compound], the “cases with siponimod-induced atrioventricular block” value (Hartley guinea pigs [3]) was “three out of four” and the “beating rate after addition of siponimod (sinus bradycardia)” value [4] was no more than 50 beats/minute.
